# Data reported in article PMC4967898, “Peptides interfering with protein-protein interactions in the ethylene signaling pathway delay tomato fruit ripening” (Scientific Reports, 2016).
# Entries after “also recorded” stand apart in the source; their conditions may differ.
# Target: T1, tomato EIN2-ETR1 complex (Solanum lycopersicum, UniProt Q41342)
# T1 construct: made in house; host or cells: E. coli BL21(DE3) with pRARE (LeEIN2 fragment); E. coli (LeETR1)
# T1 sequence (Q41342 1-754): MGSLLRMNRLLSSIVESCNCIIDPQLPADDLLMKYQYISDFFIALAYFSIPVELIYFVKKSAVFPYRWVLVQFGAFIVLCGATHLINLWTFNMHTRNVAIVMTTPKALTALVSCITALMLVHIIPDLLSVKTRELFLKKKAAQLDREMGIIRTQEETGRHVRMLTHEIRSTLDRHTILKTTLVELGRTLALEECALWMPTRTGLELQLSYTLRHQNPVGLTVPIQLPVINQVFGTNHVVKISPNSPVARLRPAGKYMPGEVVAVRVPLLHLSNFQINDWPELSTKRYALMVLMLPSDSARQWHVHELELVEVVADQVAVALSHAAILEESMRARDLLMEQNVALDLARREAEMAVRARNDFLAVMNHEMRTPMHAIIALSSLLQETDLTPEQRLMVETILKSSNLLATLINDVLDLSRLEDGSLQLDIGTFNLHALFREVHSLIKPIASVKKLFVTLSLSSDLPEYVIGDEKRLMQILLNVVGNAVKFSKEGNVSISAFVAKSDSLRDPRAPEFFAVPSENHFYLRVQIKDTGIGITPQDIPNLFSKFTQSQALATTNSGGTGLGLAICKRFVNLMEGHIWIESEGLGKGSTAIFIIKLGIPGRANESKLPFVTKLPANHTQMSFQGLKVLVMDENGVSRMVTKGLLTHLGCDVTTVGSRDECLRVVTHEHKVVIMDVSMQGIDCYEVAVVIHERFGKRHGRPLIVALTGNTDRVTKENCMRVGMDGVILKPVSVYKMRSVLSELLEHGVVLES
# Test: FRET assay of LeEIN2-LeETR1 complex formation
# Type: biochemical
# From the text: For this purpose, we made use of a fluorescence resonance energy transfer (FRET)-based in vitro assay, originally established for the respective Arabidopsis signaling proteins. Recombinant ethylene proteins LeETR1 and LeEIN2^462–1316 were labeled with fluorescent Alexa dyes[36] as described in the Methods section. LeETR1 was labeled with Alexa Fluor 488, while LeEIN2^462–1316 was labeled with Alexa Fluor 568. As the emission spectrum of the donor fluorophore partially overlaps with the excitation spectrum of the acceptor fluorophore, the dyes form a FRET pair and energy transfer from the donor to the acceptor fluorophore is possible when both probes get in close proximity. […] Formation of the complex is monitored by FRET from the donor molecule Alexa Fluor 488 to the acceptor molecule Alexa Fluor 568. Processes or molecules that prevent complex formation result in a reduced FRET from the donor to the acceptor, which is detected as reduced acceptor fluorescence at the emission maximum.
# Quantitative analysis of inhibitory peptides on ETR1-EIN2 complex by FRET
# For the FRET assay, recombinant LeETR1 was labeled with Alexa Fluor 488 succinimidyl-ester and LeEIN2^462–1316 was labeled with Alexa Fluor 568 succinimidyl-ester (both Life Technologies) in a buffer containing 50 mM potassium phosphate pH 8.0, 300 mM NaCl and 5% (v/v) glycerol following manufacturer’s protocol (MolecularProbes Protein Labeling Kit). Labeled proteins were transferred in FRET buffer containing 50 mM Tris-HCl pH 8.0, 300 mM NaCl, 0.05% (v/v) Tween 20, 5% (v/v) glycerol and mixed at a final concentration of 3.0 μM each. […] The FRET-based binding assay was carried out in 384-well microplates using an Infinite M200 Pro microplate reader (Tecan) at 455 nm excitation wavelength. Emission spectra were detected between 565 nm to 645 nm. FRET efficiencies were calculated from the maximal emission in the absence and in the presence of the supplied peptides and the half maximal inhibitor concentration IC50 was calculated as previously described.
compound,measurement,setting,value
"CC(C)C[C@H](NC(=O)[C@H](CCCNC(=N)N)NC(=O)[C@H](CCCNC(=N)N)NC(=O)[C@H](CCCCN)NC(=O)[C@H](Cc1ccc(O)cc1)NC(=O)[C@H](CCCNC(=N)N)NC(=O)[C@H](CCCCN)NC(=O)[C@@H](N)CC(C)C)C(N)=O [NOP-1, LKRYKRRL-NH2]",FRET efficiency (of the value observed in the absence of NOP-1),"100 μM NOP-1, LeETR1-Alexa Fluor 488 and LeEIN2^462–1316-Alexa Fluor 568, 3 μM each, 50 mM Tris-HCl pH 8.0, 300 mM NaCl, 0.05% Tween 20, 5% glycerol, excitation 455 nm, emission 565–645 nm",about 9%
same,effect on tomato EIN2-ETR1 complex formation,"FRET assay, 100 μM peptide where stated, LeETR1-Alexa Fluor 488 and LeEIN2-Alexa Fluor 568, 3 μM each",pronounced inhibition in FRET efficiency; also recorded: leads to a reduced FRET from LeETR1-Alexa Fluor 488 to LeEIN2-Alexa Fluor 568; also recorded: able to efficiently disrupt EIN2-ETR1 complex formation in tomato; also recorded: specific disruption of the tomato EIN2-ETR1 complex
